Experimental data taken from paper PMC4627800, “Allelic Variation of Cytochrome P450s Drives Resistance to Bednet Insecticides in a Major Malaria Vector” (PLoS Genetics, 2015).
Where two headings read alike, the source gives them in different places.

How the values were obtained:
UGANCYP6P9b [1] = target: T1, UGANCYP6P9b (Anopheles funestus, UniProt A0A0S1S7Y0); experiment: Fluorogenic probe O-dealkylation, initial testing; format: biochemical; conditions: UGANCYP6P9b vs UGANCYP6P9a; 1μM probe
Procedure: Four probes: 7-ethoxyresurofin (7-ER), 7-ethoxy-4-trifluoromethylcoumarin (7-EFC), 7-methoxy-4-trifluoromethylcoumarin (MFC) and diethoxyfluorescein (DEF) were initially tested with the various recombinant CYP6P9a and CYP6P9b proteins. In a total volume of 225μl containing ~10pmol P450, buffered with 50mM potassium phosphate buffer (KPi at pH 7.4 with 5mM MgCl2), 1μM probe substrate was added. Membranes were activated for 5 minutes at 37°C in fluorescence spectrophotometer Infinite M200 (TECAN) before 25μl NADPH regeneration buffer (1mM glucose-6-phosphate (G6P), 0.25mM MgCl2, 0.1mM NADP and 1U/ml glucose-6-phosphate dehydrogenase (G6PDH) prepared in KPi pH 7.4) was added. All reactions were conducted in three replicates with negative control (–NADPH) devoid of the regeneration buffer. […]. Results were analysed using Magellan v6.2 software.

[2] = system: CYP6P9a/CYP6P9b (MALCYP6P9a, BENCYP6P9a, MALCYP6P9b, UGANCYP6P9b); experiment: in vitro; format: biochemical, Anopheles funestus; conditions: Anopheles funestus, pH 7.4, inhibition of DEF dealkylation, DDT value for all proteins excepting UGANCYP6P9b
Procedure: (§1) To further assess differences in the degree of binding of the various recombinant proteins to insecticides from different classes, inhibition assay was conducted with DEF and ten insecticides (inhibitors). The potent P450s inhibitor miconazole was utilised as a positive control inhibitor. IC50 determination was conducted as described in previous studies. […]. The 96 well-plate was pre-incubated for 5 minutes at 37°C and then 25μl regeneration buffer (7.8mg glucose-6-phosphate (G6P), 0.25mM MgCl2, 1.7mg NADP, 6U/ml glucose-6-phosphate dehydrogenase and 2% w/v NaHCO3) incorporated. Fluorescence was monitored for 21 cycles at interval of 1 minute with shaking at every step. Results were analysed using Magellan v6.2 software and inhibition at each inhibitor concentration and incubation time calculated as residual control activity towards DEF.

BENCYP6P9a [3] = target: T2, BENCYP6P9a (Anopheles funestus, UniProt A0A0S1RZ75); experiment: Pyrethroid depletion (metabolism) assay with recombinant enzyme; format: biochemical; conditions: 20μM insecticide, 1 hour, vs -NADPH
Procedure: (§5) Membrane expressing recombinant CYP6P9a/-b and AgCPR, and reconstituted cytochrome b5 were added to the side of the tube and pre-incubated for 5 minutes at 30°C, with shaking at 1,200 rpm to activate the membrane. 20μM of test insecticide was then added into the final volume of 0.2ml (~2.5% v/v methanol), and reaction started by vortexing at 1,200 rpm and 30°C for 1 hour. Reactions were quenched with 0.1ml ice-cold methanol and incubated for 5 more minutes. Tubes were then centrifuged at 16,000 rpm and 4°C for 15 minutes, and 150μl of supernatant transferred into HPLC vials for analysis. Reactions were carried out in triplicates with experimental samples (+NADPH) and negative controls (-NADPH). 100μl of sample was loaded onto an isocratic mobile phase (90:10 v/v methanol to water) with a flow rate of 1ml/min, monitoring wavelength of 226nm and peaks separated with a 250mm C18 column (Acclaim 120, Dionex) on Agilent 1260 Infinity at 23°C. Enzyme activity was calculated as percentage depletion (the difference in the amount of insecticide(s) remaining in the +NADPH tubes compared with the–NADPH) and a t-test used for statistical analysis.

MALCYP6P9b [4] = target: T3, MALCYP6P9b (Anopheles funestus, UniProt B5AII7); experiment: as above; format: biochemical; conditions: 20μM insecticide, 1 hour, vs -NADPH
Procedure: as §5

UGANCYP6P9a = UGANCYP6P9a (Anopheles funestus, UniProt B5AII6); experiment: as above; format: biochemical; conditions: 20μM insecticide, 1 hour, vs -NADPH
Procedure: as §5

MALCYP6P9a = MALCYP6P9a (Anopheles funestus, UniProt B5AII6); experiment: as above; format: biochemical; conditions: 20μM insecticide, 1 hour, vs -NADPH
UGANCYP6P9b [5] = target: T1, UGANCYP6P9b; experiment: as above; format: biochemical; conditions: 20μM insecticide, 1 hour, vs -NADPH
FANGCYP6P9b [6] = target: T4, FANGCYP6P9b (Anopheles funestus, UniProt A0A0S1RZ61); experiment: as above; format: biochemical; conditions: 20μM insecticide, 1 hour, vs -NADPH
Procedure: (§6) To establish whether allelic variation in CYP6P9a and CYP6P9b impact their metabolic activities toward insecticides, pyrethroids were screened with the recombinant enzymes from these genes. […] Membrane expressing recombinant CYP6P9a/-b and AgCPR, and reconstituted cytochrome b5 were added to the side of the tube and pre-incubated for 5 minutes at 30°C, with shaking at 1,200 rpm to activate the membrane. 20μM of test insecticide was then added into the final volume of 0.2ml (~2.5% v/v methanol), and reaction started by vortexing at 1,200 rpm and 30°C for 1 hour. Reactions were quenched with 0.1ml ice-cold methanol and incubated for 5 more minutes. Tubes were then centrifuged at 16,000 rpm and 4°C for 15 minutes, and 150μl of supernatant transferred into HPLC vials for analysis. Reactions were carried out in triplicates with experimental samples (+NADPH) and negative controls (-NADPH). 100μl of sample was loaded onto an isocratic mobile phase (90:10 v/v methanol to water) with a flow rate of 1ml/min, monitoring wavelength of 226nm and peaks separated with a 250mm C18 column (Acclaim 120, Dionex) on Agilent 1260 Infinity at 23°C. Enzyme activity was calculated as percentage depletion (the difference in the amount of insecticide(s) remaining in the +NADPH tubes compared with the–NADPH) and a t-test used for statistical analysis.

FANGCYP6P9a [7] = target: T5, FANGCYP6P9a (Anopheles funestus, UniProt K7Z0P3); experiment: as above; format: biochemical; conditions: 20μM insecticide, 1 hour, vs -NADPH
Procedure: as §5

BENCYP6P9b [8] = target: T6, BENCYP6P9b (Anopheles funestus, UniProt A0A0S1S7Y0); experiment: as above; format: biochemical; conditions: 20μM insecticide, 1 hour, vs -NADPH
Procedure: as §6

[9] = system: transgenic flies over-expressing FANGCYP6P9b; conditions: 0.15% deltamethrin paper
Procedure: (§2) Primers used for this PCR are given in S8 Table. PCR conditions, cloning techniques, construction of transgenic flies and expression of candidate genes was conducted as described in previous studies, with more details provided in S1 Text. For control group, flies with the same background as the UAS transgenic lines but devoid of the UAS construct with the candidate gene were crossed with the driver Actin5C-GAL4 line to generate Actin5C-GAL4-null flies.
(§3) These papers were then rolled and introduced into 45 cc plastic vials. The vials were then plugged with cotton wool soaked in 5% sucrose. 20–25 (2–4 days old, post-eclosion F1 females) were selected for the bioassays and introduced into the vials. Mortality plus knockdown was scored after 1 hr, 2 hrs, 3 hrs, 6 hrs, 12 hrs and 24 hrs post-exposure to the discriminating dose of the insecticides.

[10] = system: transgenic flies over-expressing MALCYP6P9b; conditions: 0.15% deltamethrin paper
Procedure: as §2, §3

[11] = system: transgenic flies over-expressing MALCYP6P9a; conditions: 0.15% deltamethrin paper, 3 hrs
Procedure: as §2, §3

[12] = system: transgenic flies over-expressing FANGCYP6P9a; conditions: 0.15% deltamethrin paper, 3 hrs
Procedure: as §2, §3

FANGCYP6P9b [13] = target: T4, FANGCYP6P9b
Procedure: (§4) Reactions were performed in triplicates both for +NADPH (experimental tubes) and–NADPH (negative control). K m and V max were established from the plot of substrate concentrations against the initial velocities and fitting of the data to the Michaelis-Menten module using the least squares non-linear regression, as described in the GraphPad Prism 6.03 Software (GraphPad Inc., La Jolla, CA, USA).

FANGCYP6P9a [14] = target: T5, FANGCYP6P9a
Procedure: as §4

CYP6M2 = system: CYP6M2; parameters: method as in ref [5] (S1 Text); conditions: An. gambiae CYP6M2 ref [5] (S1 Text); cited from earlier work
BENCYP6P9b [15] = target: T6, BENCYP6P9b; experiment: Steady-state kinetics of pyrethroid metabolism; format: biochemical
Procedure: as §4

MALCYP6P9b [16] = target: T3, MALCYP6P9b; experiment: Steady-state kinetics of pyrethroid metabolism; format: biochemical
Procedure: as §4

BENCYP6P9a [17] = target: T2, BENCYP6P9a; experiment: Steady-state kinetics of pyrethroid metabolism; format: biochemical
Procedure: as §4

UGANCYP6P9b [18] = target: T1, UGANCYP6P9b; experiment: Steady-state kinetics of pyrethroid metabolism; format: biochemical
Procedure: as §4

CYP1A2 Glu^318Asp = system: CYP1A2 Glu^318Asp; parameters: method as in PMID 7910007; conditions: human CYP1A2 ref [37]; cited from earlier work
UGANCYP6P9b [19] = target: T1, UGANCYP6P9b; experiment: Inhibition of DEF dealkylation by insecticides (IC50); format: biochemical; conditions: compared with averagely 10μM for the other proteins
Procedure: as §1

CYP6P9a/CYP6P9b = experiment: in vitro; format: biochemical, Anopheles funestus; conditions: inhibition of DEF dealkylation; MALCYP6P9a, BENCYP6P9a, MALCYP6P9b, UGANCYP6P9b; DDT value for all proteins excepting UGANCYP6P9b
Procedure: as §1

CYP6Z8 = system: CYP6Z8; parameters: method as in ref [8] (S1 Text); conditions: cited from earlier work; for Kcat: Ae. aegypti CYP6Z8 ref [8] (S1 Text)
CYP6Z2 = conditions: cited from earlier work

Q: Which “O-dealkylation activity, fold of UGANCYP6P9a” value (UGANCYP6P9b [1]) does the source give for CCOc1ccc2c(C(F)(F)F)cc(=O)oc2c1 [7-EFC, 7-ethoxy-4-trifluoromethylcoumarin] here?
A: 17.9 fold

Q: Which IC50 [2] does the source give for CNC(=O)Oc1cccc2c1OC(C)(C)O2 [bendiocarb] here?
A: > 25 µM

Q: For CCOc1ccc(C(C)(C)COCc2cccc(Oc3ccccc3)c2)cc1 [etofenprox], which Percentage depletion (BENCYP6P9a [3]) is on record?
A: 41.22±1.54 %

Q: And the Percentage depletion (MALCYP6P9b [4])?
A: 71.59±1.42 %

Q: What about the Percentage depletion (UGANCYP6P9a) of the same molecule?
A: 42.55±1.03 %

Q: What about the Percentage depletion (MALCYP6P9a) of the same molecule?
A: 46.04±1.26 %

Q: And the Percentage depletion (UGANCYP6P9b [5])?
A: 57.91±1.55 %

Q: And the Percentage depletion (FANGCYP6P9b [6])?
A: 16.88±3.06%

Q: And the Percentage depletion (FANGCYP6P9a [7])?
A: 7.28±1.53%

Q: And the Percentage depletion (BENCYP6P9b [8])?
A: 37.15±4.15 %

Q: What does the source list for CC1(C)[C@H](C(=O)O[C@H](C#N)c2cccc(Oc3ccccc3)c2)[C@@H]1C=C(Br)Br [deltamethrin]?
A: Percentage depletion (BENCYP6P9a [3]): 59.54±5.11 %; Percentage depletion (MALCYP6P9b [4]): more than 80%; Percentage depletion (MALCYP6P9b [4]; listed as Deltamethrin): 81.69±2.27 %; Percentage depletion (UGANCYP6P9a): 57.9±2.74 %; mortality ([9]; 1 hr): 20%; mortality ([9]; 2 hrs): 53%; mortality ([9]; 3 hrs): 62%; mortality ([9]; 6 hrs): 70%; mortality ([9]; 12 hrs): 81%; mortality ([9]; 24 hrs): 93%; mortality ([10]; 1 hr): 1.5%; mortality ([10]; 2 hrs): 7.5%; mortality ([10]; 3 hrs): 12.5%; mortality ([10]; 6 hrs): 16%; mortality ([10]; 12 hrs): 21%; mortality ([10]; 24 hrs): 41%; mortality [11]: < 30%; mortality [12]: 52%; Kcat (FANGCYP6P9b [13]): 0.082 ± 0.0137 s⁻¹; Km (FANGCYP6P9b [13]): 19.5 ± 5.53 µM; Kcat (FANGCYP6P9a [14]): 0.0812 ± 0.0343 s⁻¹; Percentage depletion (MALCYP6P9a): 68.38±1.83 %; Percentage depletion (UGANCYP6P9b [5]): 62.53±4.04 %; Percentage depletion (FANGCYP6P9b [6]): 6.2±1.5%; Percentage depletion (FANGCYP6P9a [7]): 18.11±2.15%; Km (CYP6M2): 2 µM; Percentage depletion (BENCYP6P9b [8]): 62.03±1.14 %; Kcat (BENCYP6P9b [15]): 13.63±5.40^b min^-1; Kcat (MALCYP6P9b [16]): 12.09±1.44^b min^-1; Km (MALCYP6P9b [16]): 9.9 ± 1.65 µM; Kcat (BENCYP6P9a [17]): 8.78±2.62^a min^-1; Kcat (UGANCYP6P9b [18]): 10.44±4.00^b min^-1

Q: Which “increase of Kcat of O-dealkylation by Glu^318Asp substitution” value (CYP1A2 Glu^318Asp) does the source give for CCOc1ccc2ccc(=O)oc2c1 [7-ethoxycoumarin] here?
A: 13 fold

Q: What does the source list for Clc1ccc(C(c2ccc(Cl)cc2)C(Cl)(Cl)Cl)cc1 [DDT]?
A: IC50 (UGANCYP6P9b [19]): much higher value; IC50 (CYP6P9a/CYP6P9b): ~10 µM

Q: Which results are given for CC1(C)[C@H](C(=O)O[C@H](C#N)c2cccc(Oc3ccccc3)c2)[C@@H]1/C=C(\Cl)C(F)(F)F (racemic) [λ-cyhalothrin]?
A: Percentage depletion (BENCYP6P9a [3]): 52.45±1.74 %; Percentage depletion (UGANCYP6P9a): 47.74±1.5%; Percentage depletion (MALCYP6P9a): 75.41±1.72%; Percentage depletion (UGANCYP6P9b [5]): 78.76±1.31 %; Percentage depletion (FANGCYP6P9b [6]): 15.49±3.13%; Percentage depletion (FANGCYP6P9a [7]): 15.46±4.43%; Percentage depletion (BENCYP6P9b [8]): 49.35±4.41 %

Q: With CCOc1ccc2nc3ccc(=O)cc-3oc2c1 [ethoxyresorufin] as the molecule, how does the Kcat (CYP6Z8) read?
A: 0.0198 s⁻¹

Q: For Cc1c(COC(=O)[C@@H]2[C@H](/C=C(\Cl)C(F)(F)F)C2(C)C)cccc1-c1ccccc1 (racemic) [bifenthrin], which Percentage depletion (BENCYP6P9a [3]) is on record?
A: 51.02±0.75 %

Q: What about the Percentage depletion (MALCYP6P9b [4]) of the same molecule?
A: more than 80%

Q: What about the Percentage depletion (MALCYP6P9b [4]; listed as Bifenthrin) of the same molecule?
A: 81.6±0.25 %

Q: And the Percentage depletion (UGANCYP6P9a)?
A: 50.31±3.8 %

Q: And the Percentage depletion (MALCYP6P9a)?
A: 60.48±2.65 %

Q: And the Percentage depletion (UGANCYP6P9b [5])?
A: 88.8±1.61 %

Q: What about the Percentage depletion (FANGCYP6P9b [6]) of the same molecule?
A: 22.38±5.08%

Q: What about the Percentage depletion (FANGCYP6P9a [7]) of the same molecule?
A: 16.6±5.41%

Q: And the Percentage depletion (BENCYP6P9b [8])?
A: 89.19±1.01 %

Q: Which results are given for O=c1ccc2nc3ccc(OCc4ccccc4)cc3oc-2c1 [benzyloxyresorufin]?
A: Kcat (CYP6Z8): 0.00162 s⁻¹; Km (CYP6Z8; Aedes aegypti CYP6Z8-mediated de-benzylation ref [8] (S1 Text)): ~0.13 µM; Km (CYP6Z2; An. gambiae CYP6Z2-mediated de-benzylation ref [7] (S1 Text)): ~0.13 µM; Kcat (CYP6Z2; An. gambiae CYP6Z2 ref [7] (S1 Text)): ~ 1.5 min^-1

Q: With CNC(=O)Oc1ccccc1OC(C)C [propoxur] as the molecule, how does the IC50 [2] read?
A: > 25 µM
